Data set [1] can be described thus: Partition coefficient (logP). To be noted: octanol/water. It is filed as physicochemical.
Data set [2] can be described thus: (§1) In vitro inhibition of calcium influx (L-type blocking activity) in AtT-20 mouse pituitary tumor-derived cells. To be noted: AtT20. It counts as functional.
The nature of data set [3]: Selectivity IC50 ratio of L-type [Ca2+] channel blocking activity (AtT-20 mouse pituitary tumor-derived cells) to that of N-type blocking activity (IMR-32 human neuroblastoma cells).
Data set [4] concerns the target T1, Voltage-dependent N-type calcium channel subunit alpha-1B (Homo sapiens, UniProt Q00975). Briefly: Percentage inhibition of N-type calcium channel influx in IMR-32 human neuroblastoma cells at 3 uM. It counts as cell-based.
Target sequence in this assay (Q00975 whole entry, looked up): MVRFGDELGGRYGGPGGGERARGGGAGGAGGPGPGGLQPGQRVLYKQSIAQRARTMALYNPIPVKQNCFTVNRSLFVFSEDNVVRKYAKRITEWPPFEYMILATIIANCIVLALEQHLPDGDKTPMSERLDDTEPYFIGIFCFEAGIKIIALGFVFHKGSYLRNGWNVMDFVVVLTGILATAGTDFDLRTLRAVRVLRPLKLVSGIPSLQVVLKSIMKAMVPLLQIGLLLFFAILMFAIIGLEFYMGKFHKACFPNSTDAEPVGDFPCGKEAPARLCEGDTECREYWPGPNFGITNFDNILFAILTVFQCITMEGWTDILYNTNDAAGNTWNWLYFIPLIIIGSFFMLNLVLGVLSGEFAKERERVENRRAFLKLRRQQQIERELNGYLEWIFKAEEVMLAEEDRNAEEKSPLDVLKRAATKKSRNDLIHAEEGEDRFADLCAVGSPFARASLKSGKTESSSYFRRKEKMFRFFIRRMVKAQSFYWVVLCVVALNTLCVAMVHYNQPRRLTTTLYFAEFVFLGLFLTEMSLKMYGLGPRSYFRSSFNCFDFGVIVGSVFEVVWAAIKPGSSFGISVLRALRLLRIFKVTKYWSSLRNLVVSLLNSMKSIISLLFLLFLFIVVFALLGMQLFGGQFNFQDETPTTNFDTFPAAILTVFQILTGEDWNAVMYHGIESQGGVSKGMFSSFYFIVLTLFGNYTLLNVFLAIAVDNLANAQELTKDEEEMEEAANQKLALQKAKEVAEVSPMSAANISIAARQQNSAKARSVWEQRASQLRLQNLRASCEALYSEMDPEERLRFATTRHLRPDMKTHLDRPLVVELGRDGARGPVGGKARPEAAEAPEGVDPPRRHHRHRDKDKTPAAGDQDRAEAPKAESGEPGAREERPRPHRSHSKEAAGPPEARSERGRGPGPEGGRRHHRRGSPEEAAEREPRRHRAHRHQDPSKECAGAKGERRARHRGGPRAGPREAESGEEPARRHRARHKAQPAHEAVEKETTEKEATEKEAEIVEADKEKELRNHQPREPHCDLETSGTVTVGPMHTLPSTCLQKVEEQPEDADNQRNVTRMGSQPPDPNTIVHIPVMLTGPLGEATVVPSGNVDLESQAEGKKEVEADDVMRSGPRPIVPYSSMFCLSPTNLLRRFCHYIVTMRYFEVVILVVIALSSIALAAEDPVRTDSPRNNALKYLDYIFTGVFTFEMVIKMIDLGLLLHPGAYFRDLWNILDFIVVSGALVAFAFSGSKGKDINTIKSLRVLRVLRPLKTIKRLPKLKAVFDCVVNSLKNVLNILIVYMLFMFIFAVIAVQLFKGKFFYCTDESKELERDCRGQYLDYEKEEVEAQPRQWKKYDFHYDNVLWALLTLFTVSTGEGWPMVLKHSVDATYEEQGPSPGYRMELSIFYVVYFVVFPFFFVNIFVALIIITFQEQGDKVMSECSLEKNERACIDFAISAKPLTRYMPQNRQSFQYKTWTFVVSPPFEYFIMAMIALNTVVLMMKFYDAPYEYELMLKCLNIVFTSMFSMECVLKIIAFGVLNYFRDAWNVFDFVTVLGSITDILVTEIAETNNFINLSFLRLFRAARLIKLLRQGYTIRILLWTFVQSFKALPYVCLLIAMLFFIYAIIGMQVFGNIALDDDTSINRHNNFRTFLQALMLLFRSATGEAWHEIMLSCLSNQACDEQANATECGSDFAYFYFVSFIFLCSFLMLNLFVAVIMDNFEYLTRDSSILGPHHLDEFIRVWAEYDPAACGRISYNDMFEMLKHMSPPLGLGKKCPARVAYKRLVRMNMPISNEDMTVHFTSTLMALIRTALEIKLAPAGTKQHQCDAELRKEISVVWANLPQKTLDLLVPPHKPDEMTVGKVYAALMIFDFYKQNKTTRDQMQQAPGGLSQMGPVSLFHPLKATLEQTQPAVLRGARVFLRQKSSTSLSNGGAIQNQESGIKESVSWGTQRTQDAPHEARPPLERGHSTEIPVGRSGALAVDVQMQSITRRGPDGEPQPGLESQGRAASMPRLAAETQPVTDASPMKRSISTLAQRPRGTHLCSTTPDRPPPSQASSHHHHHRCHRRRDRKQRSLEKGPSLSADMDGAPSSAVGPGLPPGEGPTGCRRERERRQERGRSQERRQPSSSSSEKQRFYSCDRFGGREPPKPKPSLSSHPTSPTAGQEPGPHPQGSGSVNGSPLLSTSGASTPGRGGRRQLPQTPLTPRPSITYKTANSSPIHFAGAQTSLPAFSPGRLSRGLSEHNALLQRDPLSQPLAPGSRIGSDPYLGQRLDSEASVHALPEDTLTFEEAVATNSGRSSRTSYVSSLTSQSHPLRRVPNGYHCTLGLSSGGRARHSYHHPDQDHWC
Data set [5] deals with T1, Voltage-dependent N-type calcium channel subunit alpha-1B. Briefly: In vitro inhibition of N-type calcium channel influx in IMR-32 human neuroblastoma cells. It is filed as cell-based.
Target sequence in this assay (Q00975 whole entry): as the sequence (Q00975 whole entry, looked up) above
Data set [6] has as its system Rattus norvegicus. Briefly: Minimum effective oral dose required for the antinociceptive effects on thermal hyperalgesia induced by CCI (chronic constriction injury) of the sciatic nerve in rat. It is filed as functional. To be noted: read-out: MED.
For data set [7], the system named is Rattus norvegicus. Kind of data set: Minimum effective oral dose required for the inhibition of paw flinching in rat formalin induced pain model. It is filed as functional. Conditions: read-out: MED.
Data set [8] in a line: as §1. Conditions: AtT20.
The nature of data set [9]: Selectivity IC50 ratio of L-type blocking activity (AtT-20 mouse pituitary tumor-derived cells) to that of N-type blocking activity (IMR-32 human neuroblastoma cells).

In [1], `CC(C)(C)OC(=O)N1CSC[C@H]1C(=O)N[C@@H](CSCC1CCCCC1)C(=O)NC1CCN(Cc2ccccc2)CC1` yielded a logP of 3.5. Besides, the IC50 in [2] was 5000 nM; in [5] it was 330 nM. For the same compound, in [3], the Ratio was found to be 15. Further, the inhibition in data set [4] turned out to be 75%. The minimal effective dose came out at 30 mg/kg with Rattus norvegicus [6] and 10 mg/kg in the data set on Rattus norvegicus [7].
Consider `CC(C)(C)OC(=O)N1CSC[C@H]1C(=O)N[C@@H](CSCC1CCCCC1)C(=O)N1CCC(NCc2ccccc2)CC1`, for which the figures for the IC50 in data set [2] and in data set [5] were 2600 nM and 500 nM, respectively. Besides, the Ratio in data set [3] was 5.2.
For the compound `CC(C)(C)OC(=O)N1CSC[C@H]1C(=O)N[C@@H](CSCC1CCCCC1)C(=O)N1CCN(c2ccccc2)CC1`, the IC50 in data set [8] is 580 nM; in [5], 390 nM. Further, the Ratio in data set [9] was found to be 1.5.
`CC(C)(C)OC(=O)N1CSC[C@H]1C(=O)N[C@@H](CSCC1CCCCC1)C(=O)N1CCC(Nc2ccccc2)CC1`: the IC50 was determined as 540 nM in data set [2] and 660 nM in data set [5]. In addition, in data set [3], the Ratio amounted to 0.82.
`CC(C)(C)OC(=O)N1CSC[C@H]1C(=O)N[C@@H](CSCC1CCCCC1)C(=O)N1CCN(Cc2ccccc2)CC1`: the IC50 worked out at 1000 nM in [8] and 370 nM in data set [5]. Also, in data set [9], the Ratio was 2.7.
In [1], `CC(C)(C)OC(=O)N1CSC[C@H]1C(=O)N[C@@H](CSCC1CCCCC1)C(=O)NCc1ccc(Oc2ccccc2)cc1` gave a log partition coefficient (logP) of 5. Besides, in data set [8], the IC50 worked out at 1700 nM. In the data set with Rattus norvegicus [7], the minimal effective dose was more than 100 mg/kg. Moreover, the Ratio in data set [9] was found to be 12.
Consider `CC(C)(C)OC(=O)N1CSC[C@H]1C(=O)N[C@@H](CSCC1CCCCC1)C(=O)NCCNCc1ccccc1`, for which the log partition coefficient (logP) in data set [1] was determined as 2.8. The IC50 is 2400 nM in data set [8] and 380 nM in [5]. In addition, in [9], the Ratio worked out at 6.3.
Regarding `CC(C)(C)OC(=O)N1CSC[C@H]1C(=O)N[C@@H](CSCC1CCCCC1)C(=O)NC1CCN(c2ccccc2)CC1`, the IC50 came to 540 nM in [8] and 150 nM in data set [5]. The Ratio in data set [9] stood at 3.6.

For the origin of these results see ChEMBL document CHEMBL1134878, “L-Cysteine based N-type calcium channel blockers: structure-activity relationships of the C-terminal lipophilic moiety, and oral analgesic efficacy in rat pain models” (Bioorg Med Chem Lett, 2002).
